Data set [1] is described as follows: Neutralisation of peptide solution by mixing with DMEM medium, pH measured. It is filed as physicochemical. The conditions noted are these: for neutralization of acidity by mixing with DMEM medium: 2.5% w/v peptide solution. The protocol: As mentioned above, peptide solutions with relatively high concentrations (over 2% w/v) cannot be pre-adjusted to neutral pH before mixing with the cell suspension, and the acidity may be harmful to the cells. […] Therefore, despite the acidic nature of the 2.5% concentration solution, PRRVDP13 may still be used as a cell culture scaffold. The experimental methods are as follows. In a centrifuge tube, 1.5 mL of a 2.5% w/v self-assembling peptide solution was mixed with 1.5 mL of DMEM medium, and after gelation, additional medium was added to make a total volume of […], with a final peptide-to-medium ratio of 1:3. Alternatively, 1.5 mL of a 2.5% self-assembling peptide solution was mixed with 1.5 mL of DMEM medium to achieve a peptide-to-DMEM medium ratio of 1:1. The pH value of each group was then measured.

Data set [2] can be described thus: State of peptide solution (solution or gel) on pH adjustment with NaHCO3. Format: physicochemical. The conditions noted are these: for State of Peptide Under Different pH Conditions: gel: pH at which the peptide is a gel; for State of Peptide Under Different pH Conditions: solution: pH at which the peptide is a solution; for pH needed to stay in solution: typical value, concentration not stated (background, inventor's study). The protocol: (§1) Unless otherwise specified, the solutions in this example refer to aqueous solutions prepared using purified water or sterile water as the solvent. Based on the AC-PRVDVRVDP-NH2 provided previously, the peptides AC-KLNLKLNLNL-NH2, AC-PRVDVRVKVRVDP-NH2, and AC-RADMSRADMS-NH2 were screened. The above-mentioned peptides were formulated into a 1 mL 2.5% w/v solution, to which 100 µL of 10-fold concentration PBS buffer was added and thoroughly mixed to achieve a final solution of approximately 1-fold PBS. […] Based on this, a similar sequence with liquid-solid phase transition capability, AC-PRVDVRVRVRVDP-NH2 (PRRVDP13), was further designed. At a concentration of 1% w/v, the pH of the two peptide solutions could be pre-adjusted to a certain level using a dropwise addition of 1% w/v NaHCO3 and shaking, without the peptide solution turning into a gel for several hours. However, at a concentration of 2% w/v, when the pH increased to around 3 using a dropwise addition of 1% w/v NaHCO3 and shaking, the peptide solution quickly turned into a gel. The classical sequence RADA16 and the original sequence PRVDP9 needed to be maintained under acidic conditions even at a lower concentration of 1% w/v to keep them in solution state. Otherwise, the solution would turn into a gel, and the color would turn white as the pH increased.

The test system of data set [3] is L929 cells. Put plainly: Cell proliferation on pre-formed peptide gel (CCK-8 assay). The conditions noted are these: gel of 2.5% w/v peptide solution and equal volume of DMEM, about 48 hours, CCK-8, FIGs. 4 and 5. Format: cell-based. The protocol:
To test the biocompatibility of ISAPs, 60 µL of a 2.5% w/v peptide solution was mixed with an equal volume of DMEM medium in a cell culture plate to form a gel. Then, 120 µL of the aforementioned 1×10^5 cells/mL L929 cell suspension was loaded onto the pre-formed gel. […]. […] The cell proliferation assay was performed after culturing the cells in a cell incubator at an atmosphere of 5% CO2 for approximately 48 hours using a CCK-8 assay kit (Beyotime, C0038). For the PRRVDP13 peptide, the cell suspension was directly mixed with the peptide solution, and after the liquid-to-solid phase transition, cells were evenly distributed within the gel. The methods are as follows. 60 µL of the aforementioned L929 cell suspension of 1×10^5 cells/mL and 60 µL of PRRVDP13 peptide were added to a 96-well culture plate. After gelation, 120 µL of culture medium was added for cell culture. After approximately 48 hours of incubation in a cell incubator at an atmosphere of 5% CO2, cells were observed directly using a microscope or observed using a fluorescence microscope following staining with Calcein-AM and PI (Beyotime, C2015S) according to the manufacturer's instructions.
For orientation: Formazan colour is commonly taken as a measure of viable cells.

A further data set deals with New Zealand rabbits. Put plainly: Liver wound hemostasis model. It is filed as in vivo. From the text:
The animal (New Zealand rabbits) was anesthetized by 2% sodium pentobarbital via ear vein injection. The animal was then fixed in a supine position on the operating table. The abdominal fur was shaved, and the area was sterilized. A standard midline incision was made, and the left lobe of liver was exposed by dissecting the liver. A sterile gauze was placed beneath the liver. A 1.0 cm long and 0.3 cm deep wound was created on the liver lobe, and the wound was wiped with gauze. The test sample (approximately 1 mL) was injected deeply onto the wound until the entire wound area was covered. The hemostatic effect was observed and the hemostasis time was recorded.

Data set [4] can be described thus: Rheometer measurement of gel storage modulus G' and loss modulus G". Format: physicochemical. The conditions noted are these: 2.5% w/v gel triggered by PBS, compared to RADA16 and PRVDP9, FIGs. 7A-7C. How it is done: (§2) The experimental methods are as follows. Peptide was prepared as a 1 mL solution with a concentration of 2.5% w/v. 100 µL of a 10-fold concentration PBS buffer was added and thoroughly mixed to make the final solution as approximately 1-fold PBS to trigger gelation. The gel strength, which is related to hemostatic ability, is usually represented by the storage modulus G'. […]. The experimental methods are as follows. 3 mL of a 2.5% w/v solution of each peptide was prepared using water for injection and then 600 µL of a 5-fold concentration PBS buffer was added in to trigger gel formation. A suitable amount of gel was placed on the rheometer testing stage, with the setting of the stress of the rheometer at 1 Pa, and the scanning frequency range from 0.1 to 10 Hz to measure the storage modulus G' and loss modulus G" of the gel. To measure the viscosity of the peptide solutions, each peptide was prepared into a 2.5% w/v solution using water for injection, and a creep scan was performed using a rheometer at shear rates ranging from 0.001S^-1 to 1000S^-1 to obtain viscosity data for each peptide solution, as shown in FIGs. 7D-7F.

The test system of data set [5] is L929 cells. Put plainly: 3D cell culture in peptide gel, microscopy and Calcein-AM/PI staining. It is filed as cell-based. The conditions noted are these: L929 cell suspension mixed directly with peptide solution, about 48 hours, FIG. 6. The protocol: One potential application of ISAPs is to use them as scaffolds for supporting 3D cell culture. To validate their suitability as a 3D cell culture scaffold, L929 cells (purchased from the Kunming Cell Bank of the Chinese Academy of Sciences) that had been cultured for 48-72 hours and were in a vigorous growth phase were digested and then mixed with serum-containing DMEM medium for cell counting. The cell suspension was prepared at a concentration of 1×10^5 cells/mL with serum-containing DMEM medium. The cell suspension was mixed with the peptide in a specific ratio (60 µL:60 µL) and added to a 96-well culture plate. After gelation, 120 µL of serum-containing DMEM medium was added for cell culture. In this example, the ISAP solution was mixed with the cell suspension or cell culture medium to study their biocompatibility.
To test the biocompatibility of ISAPs, 60 µL of a 2.5% w/v peptide solution was mixed with an equal volume of DMEM medium in a cell culture plate to form a gel. Then, 120 µL of the aforementioned 1×10^5 cells/mL L929 cell suspension was loaded onto the pre-formed gel. 4 and 5. […] After approximately 48 hours of incubation in a cell incubator at an atmosphere of 5% CO2, cells were observed directly using a microscope or observed using a fluorescence microscope following staining with Calcein-AM and PI (Beyotime, C2015S) according to the manufacturer's instructions.

A short description of data set [6]: Liquid-to-solid phase transition triggered by PBS. Format: physicochemical. The conditions noted are these: 2.5% w/v solution, about 1-fold PBS, FIG. 8. The protocol:
as §2

A short description of data set [7]: Screening of dissolution and gel formation on mixing with PBS or DMEM. It is filed as physicochemical. The conditions noted are these: 2.5% w/v solution mixed with 10-fold PBS (final about 1-fold) or equal volume of DMEM. The protocol: as §1

Consider “Ac-PRVDVRVDP-NH2 [PRVDP9, AC-PRVDVRVDP-NH2, reference compound]”, for which the “neutralization of acidity by mixing with DMEM medium” value (shortened to “neutralization of acidity by mixing”) in data set [1] is reported as “relatively more difficult to neutralize”. Besides, in data set [2] (concentration 1% w/v), the “State of Peptide Under Different pH Conditions: gel” value is “pH ≥ 3.50, gel” and the “State of Peptide Under Different pH Conditions: solution” value is reported as “pH < 3.50, solution”. Also, the “pH needed to stay in solution” value in data set [2] was less than 3.

On to `CC(=O)N[C@@H](CCCNC(=N)N)C(=O)N[C@@H](C)C(=O)N[C@@H](CC(=O)O)C(=O)N[C@@H](C)C(=O)N[C@@H](CCCNC(=N)N)C(=O)N[C@@H](C)C(=O)N[C@@H](CC(=O)O)C(=O)N[C@@H](C)C(=O)N[C@@H](CCCNC(=N)N)C(=O)N[C@@H](C)C(=O)N[C@@H](CC(=O)O)C(=O)N[C@@H](C)C(=O)N[C@@H](CCCNC(=N)N)C(=O)N[C@@H](C)C(=O)N[C@@H](CC(=O)O)C(=O)N[C@@H](C)C(N)=O` [RADA16, AC-RADARADARADARADA-NH2, reference compound], for which the “neutralization of acidity by mixing” value in data set [1] is listed as “relatively more difficult to neutralize”. Also, in data set [2] (concentration 1% w/v), the “State of Peptide Under Different pH Conditions: gel” value is recorded as “pH ≥ 3.40, gel” and the “State of Peptide Under Different pH Conditions: solution” value is “pH < 3.40, solution”. In addition, the “pH needed to stay in solution” value in data set [2] is reported as less than 3.

As to “Ac-PRVDVRVRVRVDP-NH2 [PRRVDP13, AC-PRVDVRVRVRVDP-NH2]”, the “neutralization of acidity by mixing” value in data set [1] is on record as “easily neutralized”. Further, the “pH of the peptide-DMEM mixture” value in data set [1] (2.5% w/v, same volume ratio (1:1 or 1:3), compared with PRVDP9 and RADA16, FIG. 3) is “significantly higher”. Further, the “cell proliferation on the peptide gel” value in the data set with L929 cells [3] is listed as “good proliferation”. Besides, the “time to complete hemostasis” value with New Zealand rabbits (1.25% w/v peptide solution with 1 mg/mL NaHCO3, about 1 mL on rabbit liver wound) was not above 50 s; with New Zealand rabbits (2.5% w/v peptide solution, about 1 mL on rabbit liver wound), not above 50 s. Further, in the data set with New Zealand rabbits (surface hydrogel rinsed off with normal saline after 2 minutes of hemostasis), the “bleeding after rinsing off the hydrogel” value is recorded as “no new bleeding appeared”. The “mechanical properties (storage modulus G')” value in data set [4] is on record as “better mechanical properties”. Besides, the “State of Peptide Under Different pH Conditions: gel” value in data set [2] (concentration 1% w/v) was “pH ≥ 6.29, gel”; in data set [2] (concentration 2% w/v), “pH ≥ 3.25, gel”. In addition, the “State of Peptide Under Different pH Conditions: solution” value in data set [2] (concentration 1% w/v) is reported as “pH < 6.29, solution”; in data set [2] (concentration 2% w/v), “pH < 3.25, solution”. The “cell viability within the gel” value in the data set on L929 cells [5] is “majority of cells were viable”. For the same molecule, in data set [6], the “liquid-to-solid phase transition ability” value was “good liquid-to-solid phase transition ability”.

Consider “Ac-PRVDVRVKVRVDP-NH2 [AC-PRVDVRVKVRVDP-NH2]”, for which, in data set [2] (concentration 1% w/v), the “State of Peptide Under Different pH Conditions: gel” value is given as “pH ≥ 4.05, gel” and the “State of Peptide Under Different pH Conditions: solution” value was “pH < 4.05, solution”. Besides, in data set [2] (concentration 2% w/v), the “State of Peptide Under Different pH Conditions: gel” value was “pH ≥ 3.20, gel” and the “State of Peptide Under Different pH Conditions: solution” value is “pH < 3.20, solution”. Moreover, the “dissolution and gel formation” value in data set [7] is “dissolved easily and formed a good gel”.

Source of the values: patent EP4610271B1, “SELF-ASSEMBLING POLYPEPTIDE AND USE THEREOF” (Success Bio-Tech Co., Ltd., priority 2023, dated 2026).
